The term IC50 denotes the midpoint of a concentration-inhibition curve.

A value given as a limit tells only on which side of the number the result lay.

We go through 21 compounds from patent US8198273B2, “Compounds and methods for kinase modulation, and indications therefor” (Plexxikon Inc., priority 2009, dated 2012).

For one data set, the target named is CYP3A4(BQ) (Homo sapiens, UniProt P08684). Put plainly: CYP3A4(BQ) inhibition (fluorescent substrate). It counts as in vitro ADME. As to conditions: read-out: Cyp IC50 3A4(BQ). The gist of the method:
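Inhibition was followed as loss of fluorescent metabolite from a known substrate, with compound in co-factor mix as a 10-point 1:1 serial dilution (100 mM DMSO stock).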

The next data set has as its target CYP2D6 (Homo sapiens, UniProt P10635). Briefly: CYP2D6 inhibition (fluorescent substrate). It counts as in vitro ADME. As to conditions: CYP2D6, AMMC substrate; read-out: Cyp IC50 2D6. In a few lines: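 Human CYP activity was followed by the fluorescence of the metabolized product of a known substrate, which falls as metabolism is inhibited. Compounds from 100 mM DMSO stocks were serially diluted 1:1 over 10 points in co-factor mix and preincubated 10 min at 37 °C. IC50 was fitted from signal versus concentration.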

Data set [1] has as its system SKMEL2 melanoma cells (Ras mutation). Briefly: SKMEL2 cell growth inhibition (ATPlite). It counts as cell-based. The settings on record: Homo sapiens, SK-MEL-2, 72 h; SKMEL2, 3 days incubation. In a few lines: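 SKMEL2 cells seeded at 2,000 per well overnight, then exposed to an 8-point 1:3 compound titration (top 10 μM final) for 3 days at 37 °C. ATPlite luminescence used as a measure of cell number to derive IC50.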

The next data set concerns the target B-Raf (Homo sapiens, UniProt P15056). Briefly: B-Raf biochemical kinase inhibition (AlphaScreen, biotin-MEK1 substrate). As to conditions: 100 μM ATP. The gist of the method: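 Raf kinases phosphorylating biotin-MEK1, reaction started with ATP at 100 μM final. Compounds tested at 8 points by serial dilution from a 0.1 mM DMSO stock.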
In general terms: Bead proximity is the source of the signal in Alpha formats.

CYP3A4(BQ), sequence (P08684 whole entry): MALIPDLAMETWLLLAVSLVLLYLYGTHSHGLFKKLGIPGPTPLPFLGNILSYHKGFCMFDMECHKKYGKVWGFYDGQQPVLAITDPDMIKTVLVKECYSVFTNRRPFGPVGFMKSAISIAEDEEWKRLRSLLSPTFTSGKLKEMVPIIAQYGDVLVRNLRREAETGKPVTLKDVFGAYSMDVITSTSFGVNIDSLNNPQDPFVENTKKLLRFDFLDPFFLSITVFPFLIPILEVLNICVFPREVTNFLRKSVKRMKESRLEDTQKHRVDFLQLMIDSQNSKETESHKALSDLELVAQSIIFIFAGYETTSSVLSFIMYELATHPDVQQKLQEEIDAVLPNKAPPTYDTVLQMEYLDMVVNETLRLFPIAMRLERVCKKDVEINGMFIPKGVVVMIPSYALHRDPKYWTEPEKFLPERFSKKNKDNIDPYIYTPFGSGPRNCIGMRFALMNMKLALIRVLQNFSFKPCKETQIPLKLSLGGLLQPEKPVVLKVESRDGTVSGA
CYP2D6, sequence (P10635 whole entry): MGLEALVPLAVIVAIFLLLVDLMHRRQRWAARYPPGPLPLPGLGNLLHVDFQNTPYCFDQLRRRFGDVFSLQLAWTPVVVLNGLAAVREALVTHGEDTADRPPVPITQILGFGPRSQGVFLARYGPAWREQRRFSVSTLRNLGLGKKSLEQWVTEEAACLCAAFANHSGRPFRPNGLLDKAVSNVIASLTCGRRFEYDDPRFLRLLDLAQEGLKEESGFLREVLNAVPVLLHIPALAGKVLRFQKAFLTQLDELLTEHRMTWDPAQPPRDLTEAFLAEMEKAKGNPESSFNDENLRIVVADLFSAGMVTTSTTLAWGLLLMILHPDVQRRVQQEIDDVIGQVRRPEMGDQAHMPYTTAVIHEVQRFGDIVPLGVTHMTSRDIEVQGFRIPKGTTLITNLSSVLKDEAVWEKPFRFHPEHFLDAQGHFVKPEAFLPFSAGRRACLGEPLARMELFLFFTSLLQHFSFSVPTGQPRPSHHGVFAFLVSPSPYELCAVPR
B-Raf, sequence (P15056 whole entry): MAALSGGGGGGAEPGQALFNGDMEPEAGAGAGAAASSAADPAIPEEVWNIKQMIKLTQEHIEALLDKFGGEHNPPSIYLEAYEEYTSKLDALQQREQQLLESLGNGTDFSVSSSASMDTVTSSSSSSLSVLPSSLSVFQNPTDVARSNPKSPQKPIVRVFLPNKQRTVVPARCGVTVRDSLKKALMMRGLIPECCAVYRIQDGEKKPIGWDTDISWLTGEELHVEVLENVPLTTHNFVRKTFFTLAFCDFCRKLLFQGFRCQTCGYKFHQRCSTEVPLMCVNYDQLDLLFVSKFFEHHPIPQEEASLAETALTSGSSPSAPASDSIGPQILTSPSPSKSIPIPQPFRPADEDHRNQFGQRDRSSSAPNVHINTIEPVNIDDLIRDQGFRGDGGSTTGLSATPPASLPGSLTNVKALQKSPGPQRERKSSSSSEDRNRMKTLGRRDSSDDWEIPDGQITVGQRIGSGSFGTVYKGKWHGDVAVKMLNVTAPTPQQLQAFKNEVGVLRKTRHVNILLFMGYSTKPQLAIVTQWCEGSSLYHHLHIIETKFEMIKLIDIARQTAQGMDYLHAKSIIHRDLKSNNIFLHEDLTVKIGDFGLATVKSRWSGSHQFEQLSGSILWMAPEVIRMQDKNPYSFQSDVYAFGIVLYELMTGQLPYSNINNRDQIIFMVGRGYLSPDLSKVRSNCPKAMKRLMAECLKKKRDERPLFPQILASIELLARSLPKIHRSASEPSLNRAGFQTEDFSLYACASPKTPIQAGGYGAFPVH

In the case of `O=C(c1c(F)ccc(NS(=O)(=O)c2ccccc2F)c1F)c1c[nH]c2nccc(Cl)c12` [P-2017, N-[3-(4-Chloro-1H-pyrrolo[2,3-b]pyridine-3-carbonyl)-2,4-difluoro-phenyl]-2-fluoro-benzenesulfonamide], the IC50 at CYP3A4(BQ) was over 10 µM; on CYP2D6, over 10 µM; in data set [1] it was over 10 µM; at B-Raf, under 100 nM.

Regarding `N#Cc1ccnc2[nH]cc(C(=O)c3c(F)ccc(NS(=O)(=O)c4cccnc4)c3F)c12` [P-2077, Pyridine-3-sulfonic acid [3-(4-cyano-1H-pyrrolo[2,3-b]pyridine-3-carbonyl)-2,4-difluoro-phenyl]-amide], the concentration for half-maximal inhibition (IC50) was 5 to 10 µM on CYP3A4(BQ), over 10 µM on CYP2D6, over 10 µM in data set [1] and under 10 nM against B-Raf.

For `CCCS(=O)(=O)Nc1ccc(F)c(C(=O)c2c[nH]c3ncc(-c4cnc(C)nc4)cc23)c1F` [P-2211, Propane-1-sulfonic acid {2,4-difluoro-3-[5-(2-methyl-pyrimidin-5-yl)-1H-pyrrolo[2,3-b]pyridine-3-carbonyl]-phenyl}-amide], the IC50 on CYP3A4(BQ) was over 10 µM; at CYP2D6 it was over 10 µM; in data set [1] it was over 10 µM; on B-Raf, under 10 nM.

As for `CCCS(=O)(=O)Nc1ccc(F)c(C(=O)c2c[nH]c3ncc(-c4cnc(N(C)C)nc4)cc23)c1F` [P-2196, Propane-1-sulfonic acid {3-[5-(2-dimethylamino-pyrimidin-5-yl)-1H-pyrrolo[2,3-b]pyridine-3-carbonyl]-2,4-difluoro-phenyl}-amide], the concentration for half-maximal inhibition (IC50) at CYP3A4(BQ) is over 10 µM; at CYP2D6, over 10 µM; in data set [1] it was over 10 µM; against B-Raf, under 10 nM.

Consider `CCCS(=O)(=O)Nc1ccc(F)c(C(=O)c2c[nH]c3ncc(-c4ccc(Cl)nc4)cc23)c1F` [P-2154, Propane-1-sulfonic acid {3-[5-(6-chloro-pyridin-3-yl)-1H-pyrrolo[2,3-b]pyridine-3-carbonyl]-2,4-difluoro-phenyl}-amide], for which the IC50 at CYP3A4(BQ) is over 10 µM; at CYP2D6, over 10 µM; in data set [1], over 10 µM; on B-Raf, under 10 nM.

Turning to `N#Cc1cnc2[nH]cc(C(=O)c3cccc(NS(=O)(=O)c4cc(F)ccc4F)c3F)c2c1` [P-2052, N-[3-(5-Cyano-1H-pyrrolo[2,3-b]pyridine-3-carbonyl)-2-fluoro-phenyl]-2,5-difluoro-benzenesulfonamide], the half-maximal inhibitory concentration (IC50) at CYP3A4(BQ) is over 10 µM; at CYP2D6 it was over 10 µM; in data set [1] it was over 10 µM; on B-Raf it was under 100 nM.

Consider `O=C(c1c(F)ccc(NS(=O)(=O)c2cc(F)ccc2F)c1F)c1c[nH]c2nccc(Cl)c12` [P-2018, N-[3-(4-Chloro-1H-pyrrolo[2,3-b]pyridine-3-carbonyl)-2,4-difluoro-phenyl]-2,5-difluoro-benzenesulfonamide], for which the IC50 at CYP3A4(BQ) was over 10 µM; at CYP2D6, over 10 µM; in data set [1], over 10 µM; against B-Raf, under 10 nM.

`CCCS(=O)(=O)Nc1ccc(F)c(C(=O)c2c[nH]c3ncc(-c4cncnc4)cc23)c1F` [P-2162, Propane-1-sulfonic acid [2,4-difluoro-3-(5-pyrimidin-5-yl-1H-pyrrolo[2,3-b]pyridine-3-carbonyl)-phenyl]-amide]: the IC50 on CYP3A4(BQ) is under 5 µM; at CYP2D6, over 10 µM; in data set [1], under 10 µM; against B-Raf, under 100 nM.

`CCCS(=O)(=O)Nc1ccc(F)c(C(=O)c2c[nH]c3ncc(-c4ccc(S(=O)(=O)N5CCOCC5)cc4)cc23)c1F` [P-2166, Propane-1-sulfonic acid (2,4-difluoro-3-{5-[4-(morpholine-4-sulfonyl)-phenyl]-1H-pyrrolo[2,3-b]pyridine-3-carbonyl}-phenyl)-amide]: the IC50 on CYP3A4(BQ) was over 10 µM; on CYP2D6 it was over 10 µM; in data set [1], under 5 µM; against B-Raf, under 10 nM.

For the compound `CCCS(=O)(=O)Nc1ccc(F)c(C(=O)c2c[nH]c3ncc(-c4ccc(S(C)(=O)=O)cc4)cc23)c1F` [P-2183, Propane-1-sulfonic acid {2,4-difluoro-3-[5-(4-methanesulfonyl-phenyl)-1H-pyrrolo[2,3-b]pyridine-3-carbonyl]-phenyl}-amide], the IC50 on CYP3A4(BQ) was over 10 µM; at CYP2D6, over 10 µM; in data set [1], over 10 µM; against B-Raf it was under 10 nM.

Consider `Cc1cnc2[nH]cc(C(=O)c3c(F)ccc(NS(=O)(=O)c4ccccc4F)c3F)c2c1` [P-2014, N-[2,4-Difluoro-3-(5-methyl-1H-pyrrolo[2,3-b]pyridine-3-carbonyl)-phenyl]-2-fluoro-benzenesulfonamide], for which the IC50 on CYP3A4(BQ) is over 10 µM; on CYP2D6, over 10 µM; in data set [1], over 10 µM; against B-Raf, under 100 nM.

On to `CCCS(=O)(=O)Nc1ccc(F)c(C(=O)c2c[nH]c3ncc(C#CCOC)cc23)c1F` [P-2239, Propane-1-sulfonic acid {2,4-difluoro-3-[5-(3-methoxy-prop-1-ynyl)-1H-pyrrolo[2,3-b]pyridine-3-carbonyl]-phenyl}-amide], for which the IC50 is 5 to 10 µM at CYP3A4(BQ), over 10 µM at CYP2D6, under 20 µM in data set [1] and under 100 nM on B-Raf.

Turning to `O=C(c1c(F)ccc(NS(=O)(=O)c2cc(F)ccc2F)c1F)c1c[nH]c2ncc(Cl)cc12` [P-2002, N-[3-(5-Chloro-1H-pyrrolo[2,3-b]pyridine-3-carbonyl)-2,4-difluoro-phenyl]-2,5-difluoro-benzenesulfonamide], the IC50 was over 10 µM at CYP3A4(BQ), over 10 µM on CYP2D6, over 10 µM in data set [1] and under 10 nM on B-Raf.

`CCCS(=O)(=O)Nc1ccc(F)c(C(=O)c2c[nH]c3ncc(-c4ccc(C)nc4)cc23)c1F` [P-2213, Propane-1-sulfonic acid {2,4-difluoro-3-[5-(6-methyl-pyridin-3-yl)-1H-pyrrolo[2,3-b]pyridine-3-carbonyl]-phenyl}-amide]: the IC50 on CYP3A4(BQ) was over 10 µM; at CYP2D6, over 10 µM; in data set [1], over 10 µM; at B-Raf, under 10 nM.

Consider `CCCS(=O)(=O)Nc1ccc(F)c(C(=O)c2c[nH]c3ncc(-c4ccc(S(=O)(=O)NC)cc4)cc23)c1F` [P-2167, 4-{3-[2,6-Difluoro-3-(propane-1-sulfonylamino)-benzoyl]-1H-pyrrolo[2,3-b]pyridin-5-yl}-N-methyl-benzenesulfonamide], for which the IC50 on CYP3A4(BQ) was 5 to 10 µM; at CYP2D6, over 10 µM; in data set [1] it was under 5 µM; on B-Raf, under 10 nM.

For `CCCS(=O)(=O)Nc1ccc(F)c(C(=O)c2c[nH]c3ncc(-c4ccc(F)nc4)cc23)c1F` [P-2155, Propane-1-sulfonic acid {2,4-difluoro-3-[5-(6-fluoro-pyridin-3-yl)-1H-pyrrolo[2,3-b]pyridine-3-carbonyl]-phenyl}-amide], the IC50 was over 10 µM on CYP3A4(BQ), over 10 µM on CYP2D6, under 20 µM in data set [1] and under 10 nM at B-Raf.

Take `CCCS(=O)(=O)Nc1ccc(F)c(C(=O)c2c[nH]c3ncc(-c4cn[nH]c4)cc23)c1F` [P-2174, Propane-1-sulfonic acid {2,4-difluoro-3-[5-(1H-pyrazol-4-yl)-1H-pyrrolo[2,3-b]pyridine-3-carbonyl]-phenyl}-amide]: the IC50 on CYP3A4(BQ) is under 5 µM; on CYP2D6 it was 5 to 10 µM; in data set [1], under 10 µM; on B-Raf, under 10 nM.

In the case of `COc1cnc2[nH]cc(C(=O)c3c(F)ccc(NS(=O)(=O)c4cc(F)ccc4F)c3F)c2c1` [P-2010, N-[2,4-Difluoro-3-(5-methoxy-1H-pyrrolo[2,3-b]pyridine-3-carbonyl)-phenyl]-2,5-difluoro-benzenesulfonamide], the IC50 at CYP3A4(BQ) was over 10 µM; at CYP2D6, over 10 µM; in data set [1] it was over 10 µM; on B-Raf, under 100 nM.

Turning to `N#Cc1cnc2[nH]cc(C(=O)c3cccc(NS(=O)(=O)c4ccccc4)c3F)c2c1` [P-2056, N-[3-(5-Cyano-1H-pyrrolo[2,3-b]pyridine-3-carbonyl)-2-fluoro-phenyl]-benzenesulfonamide], the IC50 on CYP3A4(BQ) is over 10 µM; at CYP2D6, over 10 µM; in data set [1], over 10 µM; on B-Raf it was under 100 nM.

Take `N#Cc1cnc2[nH]cc(C(=O)c3c(F)ccc(NS(=O)(=O)c4c(F)cccc4F)c3F)c2c1` [P-2029, N-[3-(5-Cyano-1H-pyrrolo[2,3-b]pyridine-3-carbonyl)-2,4-difluoro-phenyl]-2,6-difluoro-benzenesulfonamide]: the IC50 at CYP3A4(BQ) is over 10 µM; on CYP2D6, over 10 µM; in data set [1], over 10 µM; against B-Raf it was under 100 nM.

`N#Cc1ccnc2[nH]cc(C(=O)c3c(F)ccc(NS(=O)(=O)c4c(F)cccc4F)c3F)c12` [P-2037, N-[3-(4-Cyano-1H-pyrrolo[2,3-b]pyridine-3-carbonyl)-2,4-difluoro-phenyl]-2,6-difluoro-benzenesulfonamide]: the IC50 is over 10 µM at CYP3A4(BQ), over 10 µM at CYP2D6, over 10 µM in data set [1] and under 100 nM against B-Raf.
